Data published in ChEMBL document CHEMBL4507329, “Data for DCP probe BTZO-1” (2021).

What was measured:
[1] = system: Receptor-type tyrosine-protein kinase FLT3 (Homo sapiens), P36888 [N841I]; conditions: Compound concentration 1000.0 nM
[2] = target: 3-phosphoinositide-dependent protein kinase 1 (Homo sapiens) (UniProt O15530); conditions: Compound concentration 1000.0 nM
[3] = target: Mu-type opioid receptor (Homo sapiens) (UniProt P35372); conditions: Compound concentration 10.0 uM
[4] = target: Calcium/calmodulin-dependent protein kinase type II subunit beta (Homo sapiens) (UniProt Q13554); conditions: Compound concentration 1000.0 nM
[5] = target: Serine/threonine-protein kinase MARK2 (Homo sapiens) (UniProt Q7KZI7); conditions: Compound concentration 1000.0 nM
[6] = system: Proto-oncogene tyrosine-protein kinase receptor Ret (Homo sapiens), P07949 [V804L]; conditions: Compound concentration 1000.0 nM
[7] = target: Serine/threonine-protein kinase 32B (Homo sapiens) (UniProt Q9NY57); conditions: Compound concentration 1000.0 nM
[8] = system: Phosphatidylinositol 4,5-bisphosphate 3-kinase catalytic subunit alpha isoform (Homo sapiens), P42336 [I800L]; conditions: Compound concentration 1000.0 nM
[9] = target: Ribosomal protein S6 kinase alpha-6 (Homo sapiens) (UniProt Q9UK32); conditions: Compound concentration 1000.0 nM
Chain of Ribosomal protein S6 kinase alpha-6 (Homo sapiens) (Q9UK32 whole entry): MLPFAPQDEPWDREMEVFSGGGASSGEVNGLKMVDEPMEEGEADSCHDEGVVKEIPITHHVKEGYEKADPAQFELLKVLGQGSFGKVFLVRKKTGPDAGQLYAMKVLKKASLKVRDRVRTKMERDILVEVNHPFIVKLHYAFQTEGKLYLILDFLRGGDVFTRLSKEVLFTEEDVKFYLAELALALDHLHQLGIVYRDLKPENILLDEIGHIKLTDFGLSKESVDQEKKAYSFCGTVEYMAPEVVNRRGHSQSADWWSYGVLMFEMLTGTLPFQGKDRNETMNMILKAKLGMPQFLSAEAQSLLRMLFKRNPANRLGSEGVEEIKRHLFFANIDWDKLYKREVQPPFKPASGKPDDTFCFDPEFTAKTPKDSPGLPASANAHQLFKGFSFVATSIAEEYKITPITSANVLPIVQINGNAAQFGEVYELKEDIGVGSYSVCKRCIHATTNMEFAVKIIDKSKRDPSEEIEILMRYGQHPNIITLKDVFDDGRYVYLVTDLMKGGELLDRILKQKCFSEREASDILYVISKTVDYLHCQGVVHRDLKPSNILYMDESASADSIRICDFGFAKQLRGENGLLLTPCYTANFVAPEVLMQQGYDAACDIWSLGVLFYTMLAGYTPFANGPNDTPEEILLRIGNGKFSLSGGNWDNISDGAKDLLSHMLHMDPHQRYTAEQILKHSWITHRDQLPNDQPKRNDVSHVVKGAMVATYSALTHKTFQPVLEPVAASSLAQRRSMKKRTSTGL

[10] = target: MAP kinase-interacting serine/threonine-protein kinase 1 (Homo sapiens) (UniProt Q9BUB5); conditions: Compound concentration 1000.0 nM
[11] = target: Tyrosine-protein kinase receptor TYRO3 (Homo sapiens) (UniProt Q06418); conditions: Compound concentration 1000.0 nM
[12] = target: T1, Macrophage migration inhibitory factor (Homo sapiens) (UniProt P14174); assay: ARE-Luc Reporter Assay (Activation of ARE (antioxidant response element)-mediated cytoprotective gene expression)
T1 sequence (whole entry): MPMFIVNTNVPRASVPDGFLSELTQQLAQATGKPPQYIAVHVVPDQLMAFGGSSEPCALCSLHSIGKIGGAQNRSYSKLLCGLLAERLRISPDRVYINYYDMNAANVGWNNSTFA

[13] = target: Mitogen-activated protein kinase 12 (Homo sapiens) (UniProt P53778); conditions: Compound concentration 1000.0 nM
[14] = target: Cyclin-dependent kinase 7 (Homo sapiens) (UniProt P50613); conditions: Compound concentration 1000.0 nM
Chain of Cyclin-dependent kinase 7 (Homo sapiens) (P50613 whole entry): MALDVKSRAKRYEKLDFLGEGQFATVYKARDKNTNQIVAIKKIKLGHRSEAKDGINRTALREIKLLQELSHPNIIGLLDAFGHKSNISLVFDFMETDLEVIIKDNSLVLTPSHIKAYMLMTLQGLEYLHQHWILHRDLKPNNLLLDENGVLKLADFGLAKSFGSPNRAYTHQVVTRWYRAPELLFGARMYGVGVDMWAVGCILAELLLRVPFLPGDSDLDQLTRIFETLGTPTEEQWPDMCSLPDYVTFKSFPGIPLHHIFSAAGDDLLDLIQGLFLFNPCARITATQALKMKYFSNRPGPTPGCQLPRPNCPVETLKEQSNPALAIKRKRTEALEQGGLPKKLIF

[15] = target: Serine/threonine-protein kinase TNNI3K (Homo sapiens) (UniProt Q59H18); conditions: Compound concentration 1000.0 nM
[16] = target: Tyrosine-protein kinase Yes (Homo sapiens) (UniProt P07947); conditions: Compound concentration 1000.0 nM
[17] = target: MAP kinase-activated protein kinase 2 (Homo sapiens) (UniProt P49137); conditions: Compound concentration 1000.0 nM
Chain of MAP kinase-activated protein kinase 2 (Homo sapiens) (P49137 whole entry, looked up): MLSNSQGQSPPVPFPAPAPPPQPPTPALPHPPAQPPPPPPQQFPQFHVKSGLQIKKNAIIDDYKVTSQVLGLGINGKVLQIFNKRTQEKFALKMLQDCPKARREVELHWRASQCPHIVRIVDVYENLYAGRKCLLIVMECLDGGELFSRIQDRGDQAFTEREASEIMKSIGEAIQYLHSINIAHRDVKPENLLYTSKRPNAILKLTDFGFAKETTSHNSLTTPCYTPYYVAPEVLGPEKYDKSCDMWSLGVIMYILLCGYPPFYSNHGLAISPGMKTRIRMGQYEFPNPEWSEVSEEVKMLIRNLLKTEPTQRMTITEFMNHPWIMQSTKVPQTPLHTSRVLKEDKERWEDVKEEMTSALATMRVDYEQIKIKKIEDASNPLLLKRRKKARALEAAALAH

[18] = target: Mitogen-activated protein kinase kinase kinase 14 (Homo sapiens) (UniProt Q99558); conditions: Compound concentration 1000.0 nM
[19] = target: MAP kinase-activated protein kinase 5 (Homo sapiens) (UniProt Q8IW41); conditions: Compound concentration 1000.0 nM
Chain of MAP kinase-activated protein kinase 5 (Homo sapiens) (Q8IW41 whole entry): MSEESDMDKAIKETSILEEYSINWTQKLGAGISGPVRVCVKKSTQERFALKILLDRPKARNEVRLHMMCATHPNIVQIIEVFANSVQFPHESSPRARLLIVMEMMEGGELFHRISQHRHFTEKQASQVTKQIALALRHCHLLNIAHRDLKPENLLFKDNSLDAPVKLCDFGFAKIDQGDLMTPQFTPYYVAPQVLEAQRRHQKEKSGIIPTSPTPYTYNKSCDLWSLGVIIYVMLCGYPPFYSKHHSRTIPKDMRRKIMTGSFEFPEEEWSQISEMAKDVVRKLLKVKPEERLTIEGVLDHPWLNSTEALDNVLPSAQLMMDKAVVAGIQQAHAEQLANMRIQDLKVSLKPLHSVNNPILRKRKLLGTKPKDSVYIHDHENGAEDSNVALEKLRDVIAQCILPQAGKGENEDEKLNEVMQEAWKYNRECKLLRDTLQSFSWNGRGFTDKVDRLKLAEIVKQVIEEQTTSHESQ

[20] = target: Serine/threonine-protein kinase Nek7 (Homo sapiens) (UniProt Q8TDX7); conditions: Compound concentration 1000.0 nM
[21] = target: Cyclin-dependent kinase-like 2 (Homo sapiens) (UniProt Q92772); conditions: Compound concentration 1000.0 nM
[22] = target: Membrane-associated tyrosine- and threonine-specific cdc2-inhibitory kinase (Homo sapiens) (UniProt Q99640); conditions: Compound concentration 1000.0 nM
Chain of Membrane-associated tyrosine- and threonine-specific cdc2-inhibitory kinase (Homo sapiens) (Q99640 whole entry): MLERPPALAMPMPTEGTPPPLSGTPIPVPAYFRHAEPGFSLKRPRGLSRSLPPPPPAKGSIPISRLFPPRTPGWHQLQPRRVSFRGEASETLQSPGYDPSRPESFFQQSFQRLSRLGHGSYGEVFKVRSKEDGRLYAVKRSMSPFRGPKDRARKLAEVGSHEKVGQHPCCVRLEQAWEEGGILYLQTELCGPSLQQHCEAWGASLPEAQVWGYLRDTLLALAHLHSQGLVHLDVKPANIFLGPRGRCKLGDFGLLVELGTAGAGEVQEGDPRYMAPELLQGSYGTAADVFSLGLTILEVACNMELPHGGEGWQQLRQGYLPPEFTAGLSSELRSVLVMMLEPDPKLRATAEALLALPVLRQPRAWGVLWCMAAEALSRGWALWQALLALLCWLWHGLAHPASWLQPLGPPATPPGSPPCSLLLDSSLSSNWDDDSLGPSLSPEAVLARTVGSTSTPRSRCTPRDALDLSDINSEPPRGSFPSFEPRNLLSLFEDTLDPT

[23] = target: Mitogen-activated protein kinase kinase kinase 11 (Homo sapiens) (UniProt Q16584); conditions: Compound concentration 1000.0 nM
[24] = target: Serine/threonine-protein kinase DCLK3 (Homo sapiens) (UniProt Q9C098); conditions: Compound concentration 1000.0 nM
[25] = target: Cyclin-dependent kinase 2 homolog (Plasmodium falciparum (isolate 3D7)) (UniProt P61075); conditions: Compound concentration 1000.0 nM
[26] = target: Ephrin type-B receptor 1 (Homo sapiens) (UniProt P54762); conditions: Compound concentration 1000.0 nM
[27] = target: Peripheral plasma membrane protein CASK (Homo sapiens) (UniProt O14936); conditions: Compound concentration 1000.0 nM
[28] = target: Fibroblast growth factor receptor 3 (Homo sapiens) (UniProt P22607); conditions: Compound concentration 1000.0 nM
[29] = target: Proto-oncogene tyrosine-protein kinase Src (Homo sapiens) (UniProt P12931); conditions: Compound concentration 1000.0 nM
[30] = target: Focal adhesion kinase 1 (Homo sapiens) (UniProt Q05397); conditions: Compound concentration 1000.0 nM
Chain of Focal adhesion kinase 1 (Homo sapiens) (Q05397 2-1052 limits assumed): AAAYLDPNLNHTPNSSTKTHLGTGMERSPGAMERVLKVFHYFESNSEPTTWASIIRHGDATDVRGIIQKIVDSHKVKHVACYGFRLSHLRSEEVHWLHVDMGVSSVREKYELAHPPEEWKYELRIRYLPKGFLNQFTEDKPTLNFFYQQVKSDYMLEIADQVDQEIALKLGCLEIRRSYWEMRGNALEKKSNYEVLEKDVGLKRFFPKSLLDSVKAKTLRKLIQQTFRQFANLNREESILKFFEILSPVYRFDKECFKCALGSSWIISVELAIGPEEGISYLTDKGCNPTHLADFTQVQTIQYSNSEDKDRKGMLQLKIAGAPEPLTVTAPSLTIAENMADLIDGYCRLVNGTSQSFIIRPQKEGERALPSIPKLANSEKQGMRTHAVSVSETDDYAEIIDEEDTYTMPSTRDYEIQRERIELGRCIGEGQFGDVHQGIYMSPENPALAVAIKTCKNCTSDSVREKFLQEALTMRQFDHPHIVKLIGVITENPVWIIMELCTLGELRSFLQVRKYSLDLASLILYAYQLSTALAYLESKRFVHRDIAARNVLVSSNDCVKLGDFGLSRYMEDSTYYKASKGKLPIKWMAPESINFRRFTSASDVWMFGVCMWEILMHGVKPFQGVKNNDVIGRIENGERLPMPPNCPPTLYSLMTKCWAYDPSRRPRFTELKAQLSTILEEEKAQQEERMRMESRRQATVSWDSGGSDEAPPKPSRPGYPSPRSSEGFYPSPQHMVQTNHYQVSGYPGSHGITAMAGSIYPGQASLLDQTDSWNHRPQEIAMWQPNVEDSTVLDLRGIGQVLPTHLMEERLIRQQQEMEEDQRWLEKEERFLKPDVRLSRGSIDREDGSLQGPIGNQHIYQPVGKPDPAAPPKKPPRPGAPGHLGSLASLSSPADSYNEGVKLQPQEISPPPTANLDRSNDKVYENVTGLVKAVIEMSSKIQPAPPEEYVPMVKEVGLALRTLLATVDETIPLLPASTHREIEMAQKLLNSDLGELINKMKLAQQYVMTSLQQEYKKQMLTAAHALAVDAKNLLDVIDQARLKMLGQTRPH

[31] = target: Serine/threonine-protein kinase DCLK2 (Homo sapiens) (UniProt Q8N568); conditions: Compound concentration 1000.0 nM
[32] = target: Homeodomain-interacting protein kinase 1 (Homo sapiens) (UniProt Q86Z02); conditions: Compound concentration 1000.0 nM
[33] = target: Casein kinase I isoform epsilon (Homo sapiens) (UniProt P49674); conditions: Compound concentration 1000.0 nM
[34] = target: Cyclin-dependent kinase 15 (Homo sapiens) (UniProt Q96Q40); conditions: Compound concentration 1000.0 nM
[35] = target: Mitogen-activated protein kinase kinase kinase 13 (Homo sapiens) (UniProt O43283); conditions: Compound concentration 1000.0 nM
[36] = target: Receptor-interacting serine/threonine-protein kinase 4 (Homo sapiens) (UniProt P57078); conditions: Compound concentration 1000.0 nM
Chain of Receptor-interacting serine/threonine-protein kinase 4 (Homo sapiens) (P57078 whole entry): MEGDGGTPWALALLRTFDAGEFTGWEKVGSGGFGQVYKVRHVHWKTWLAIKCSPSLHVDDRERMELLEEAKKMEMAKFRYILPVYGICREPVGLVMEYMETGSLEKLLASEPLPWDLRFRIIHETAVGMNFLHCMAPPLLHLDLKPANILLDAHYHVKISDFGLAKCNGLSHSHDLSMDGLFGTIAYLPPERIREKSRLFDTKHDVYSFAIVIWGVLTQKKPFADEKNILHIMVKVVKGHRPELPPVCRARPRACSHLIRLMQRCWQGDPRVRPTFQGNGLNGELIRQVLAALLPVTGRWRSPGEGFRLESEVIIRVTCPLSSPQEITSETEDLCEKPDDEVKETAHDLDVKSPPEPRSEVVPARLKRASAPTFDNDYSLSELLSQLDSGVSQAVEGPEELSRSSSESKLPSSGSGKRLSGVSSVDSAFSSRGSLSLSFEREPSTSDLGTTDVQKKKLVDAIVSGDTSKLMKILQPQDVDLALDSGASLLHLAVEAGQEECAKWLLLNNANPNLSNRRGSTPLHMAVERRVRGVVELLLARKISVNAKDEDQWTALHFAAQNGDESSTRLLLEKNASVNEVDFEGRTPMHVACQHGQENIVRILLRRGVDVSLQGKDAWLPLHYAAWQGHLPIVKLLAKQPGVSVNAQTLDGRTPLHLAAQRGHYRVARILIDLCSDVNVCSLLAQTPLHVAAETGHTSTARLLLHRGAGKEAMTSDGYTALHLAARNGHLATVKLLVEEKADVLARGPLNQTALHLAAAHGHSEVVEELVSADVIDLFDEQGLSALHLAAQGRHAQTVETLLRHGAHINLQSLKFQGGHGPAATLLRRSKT

[37] = target: Histamine H3 receptor (Homo sapiens) (UniProt Q9Y5N1); conditions: Compound concentration 10.0 uM
[38] = target: Epidermal growth factor receptor (Homo sapiens) (UniProt P00533); conditions: Compound concentration 1000.0 nM
[39] = target: Serine/threonine-protein kinase 33 (Homo sapiens) (UniProt Q9BYT3); conditions: Compound concentration 1000.0 nM
[40] = target: Platelet-derived growth factor receptor alpha (Homo sapiens) (UniProt P16234); conditions: Compound concentration 1000.0 nM
[41] = target: Cyclin-dependent kinase 13 (Homo sapiens) (UniProt Q14004); conditions: Compound concentration 1000.0 nM
[42] = target: Mitogen-activated protein kinase kinase kinase 19 (Homo sapiens) (UniProt Q56UN5); conditions: Compound concentration 1000.0 nM
[43] = target: Protein kinase C eta type (Homo sapiens) (UniProt P24723); conditions: Compound concentration 1000.0 nM
Chain of Protein kinase C eta type (Homo sapiens) (P24723 whole entry): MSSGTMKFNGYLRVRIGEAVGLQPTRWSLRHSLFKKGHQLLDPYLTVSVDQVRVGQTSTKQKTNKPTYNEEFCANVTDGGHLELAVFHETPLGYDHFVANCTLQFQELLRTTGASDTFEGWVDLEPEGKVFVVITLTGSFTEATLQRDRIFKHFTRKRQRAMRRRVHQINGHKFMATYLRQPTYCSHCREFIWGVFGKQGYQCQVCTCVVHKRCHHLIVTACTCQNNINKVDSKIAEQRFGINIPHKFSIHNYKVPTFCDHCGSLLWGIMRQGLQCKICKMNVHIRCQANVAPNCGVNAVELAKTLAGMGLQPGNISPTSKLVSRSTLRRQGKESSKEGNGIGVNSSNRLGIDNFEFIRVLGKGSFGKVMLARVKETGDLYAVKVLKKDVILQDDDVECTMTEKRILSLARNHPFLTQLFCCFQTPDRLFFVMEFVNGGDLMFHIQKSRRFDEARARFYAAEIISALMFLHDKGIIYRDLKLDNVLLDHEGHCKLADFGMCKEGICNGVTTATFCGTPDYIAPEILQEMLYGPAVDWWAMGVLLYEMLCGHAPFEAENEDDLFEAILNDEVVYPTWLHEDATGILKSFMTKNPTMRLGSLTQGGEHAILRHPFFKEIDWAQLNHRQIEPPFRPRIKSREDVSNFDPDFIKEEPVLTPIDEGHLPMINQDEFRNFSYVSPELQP

`O=c1nc(-c2ccccn2)sc2ccccc12` [BTZO-1] gave a residual activity [1] of 74%, a residual activity [2] of 100% and an inhibition [3] of 3.52%. For the same compound, the residual activity [4] was 100%, the residual activity [5] was 78% and the residual activity [6] was 70%. It also gave a residual activity [7] of 100%, a residual activity [8] of 84% and a residual activity [9] of 95%. For the same compound, the residual activity [10] was 89%, the residual activity [11] was 80% and the MEC2.0 [12] was 820 nM. For the same compound, the residual activity [13] was 58%, the residual activity [14] was 69% and the residual activity [15] was 87%. For the same compound, the residual activity [16] was 100%, the residual activity [17] was 100% and the residual activity [18] was 100%. It also gave a residual activity [19] of 92%, a residual activity [20] of 75% and a residual activity [21] of 76%. It also gave a residual activity [22] of 100%, a residual activity [23] of 100% and a residual activity [24] of 97%. For the same compound, the residual activity [25] was 100%, the residual activity [26] was 88% and the residual activity [27] was 84%. For the same compound, the residual activity [28] was 83%, the residual activity [29] was 92% and the residual activity [30] was 90%. For the same compound, the residual activity [31] was 97%, the residual activity [32] was 61% and the residual activity [33] was 88%. It also gave a residual activity [34] of 75%, a residual activity [35] of 100% and a residual activity [36] of 84%. The inhibition [37] was 2%, the residual activity [38] was 70% and the residual activity [39] was 87%. For the same compound, the residual activity [40] was 89%, the residual activity [41] was 75% and the residual activity [42] was 86%. The residual activity [43] was 98%.
Compound `O=C1NC(c2ccccn2)Sc2ccccc21` (configuration not stated) [BTZO-4] has a residual activity [1] of 60%, a residual activity [2] of 97% and an inhibition [3] of 6.47%. It also gave a residual activity [4] of 100%, a residual activity [5] of 92% and a residual activity [6] of 69%. For the same compound, the residual activity [7] was 100%, the residual activity [8] was 80% and the residual activity [9] was 96%. For the same compound, the residual activity [10] was 82%, the residual activity [11] was 76% and the MEC1.5 [12] was over 1 µM. The MEC2.0 [12] was over 10000 nM, the residual activity [13] was 51% and the residual activity [14] was 77%. It also gave a residual activity [15] of 87%, a residual activity [16] of 100% and a residual activity [17] of 100%. The residual activity [18] was 92%, the residual activity [19] was 73% and the residual activity [20] was 68%. It also gave a residual activity [21] of 76%, a residual activity [22] of 100% and a residual activity [23] of 94%. For the same compound, the residual activity [24] was 69%, the residual activity [25] was 100% and the residual activity [26] was 90%. For the same compound, the residual activity [27] was 71%, the residual activity [28] was 97% and the residual activity [29] was 85%. The residual activity [30] was 79%, the residual activity [31] was 92% and the residual activity [32] was 75%. For the same compound, the residual activity [33] was 98%, the residual activity [34] was 63% and the residual activity [35] was 100%. It also gave a residual activity [36] of 72%, an inhibition [37] of 8.1% and a residual activity [38] of 82%. For the same compound, the residual activity [39] was 93%, the residual activity [40] was 76% and the residual activity [41] was 90%. For the same compound, the residual activity [42] was 92% and the residual activity [43] was 100%.
